± gives the uncertainty stated by the source.
Assay: xn = mol fraction of the nth substance listed

CC[n+]1ccn(C)c1.O=S(=O)([O-])O + O=C([O-])CC(O)(CC(=O)[O-])C(=O)[O-].[Li+].[Li+].[Li+] + O
viscosity [mPa·s], 101 kPa
Settings | 293.15 K | 298.15 K | 303.15 K | 308.15 K | 313.15 K
x2 = 0, x1 = 0.0006645 | 1.023 ± 0.016 | 0.93 ± 0.017 | 0.823 ± 0.015 | 0.75 ± 0.015 | 0.674 ± 0.013
x2 = 0, x1 = 0.0007293 | 1.036 ± 0.017 | 0.943 ± 0.018 | 0.825 ± 0.015 | 0.749 ± 0.014 | 0.689 ± 0.015
x2 = 0, x1 = 0.0009254 | 1.064 ± 0.021 | 0.943 ± 0.016 | 0.844 ± 0.019 | 0.763 ± 0.016 | 0.683 ± 0.014

CCCCCCCC/C=C\CCCCCCCC(=O)O + CC[N+](CC)(CC)CC.[Cl-]
100 kPa, x2 = 0.25
Settings | viscosity [mPa·s]
293.1 K | 268.5 ± 8.8
313.2 K | 95.4 ± 1.7
323.2 K | 61.9 ± 0.9

CCCC[n+]1ccn(C)c1.O=S(=O)([N-]S(=O)(=O)C(F)(F)F)C(F)(F)F + ClCCl
Settings | viscosity [mPa·s]
298 K, 101 kPa, x2 = 0 | 50.4 ± 1.9

Source: the CheMixHub ionic liquid set
